According to the NIST ThermoML archive (doi:10.1016/j.jct.2017.03.004):
Numbers after ± are expanded uncertainties.

Assay: activity coefficient (dimensionless); of the first substance listed, at infinite dilution; xn = mol fraction of the nth substance listed
Details: 101.33 kPa, Liquid, Chromatography, x1 = 0

Structure (SMILES) | activity coefficient (318.15 K) | activity coefficient (328.15 K) | activity coefficient (338.15 K) | activity coefficient (348.15 K) | activity coefficient (358.15 K) | activity coefficient (368.15 K) | activity coefficient (298.15 K) | activity coefficient (308.15 K)
COC(C)=O [methyl ethanoate] + N#C[N-]C#N.OCCC[n+]1ccccc1 | 3.28 ± 0.22 | 3.43 ± 0.23 | 3.56 ± 0.24 | 3.71 ± 0.25 | 3.84 ± 0.26 | 3.98 ± 0.27 | – | –
CCC(=O)OC [methyl propanoate] + N#C[N-]C#N.OCCC[n+]1ccccc1 | 5.77 ± 0.39 | 5.99 ± 0.41 | 6.2 ± 0.42 | 6.42 ± 0.44 | 6.61 ± 0.45 | 6.81 ± 0.46 | – | –
CC1CCCCC1 [methylcyclohexane] + N#C[N-]C#N.OCCC[n+]1ccccc1 | 182 ± 13 | 170 ± 12 | 160 ± 11 | 150 ± 10 | 143 ± 10 | – | 210 ± 14 | 195 ± 13
CCCCCCCCC [nonane] + N#C[N-]C#N.OCCC[n+]1ccccc1 | 1180 ± 81 | 1080 ± 74 | 985 ± 68 | 906 ± 62 | 837 ± 58 | – | 1450 ± 100 | 1300 ± 90
C=CCCCCCC [oct-1-ene] + N#C[N-]C#N.OCCC[n+]1ccccc1 | 346 ± 24 | 326 ± 22 | 310 ± 21 | 295 ± 20 | 282 ± 19 | – | 391 ± 27 | 367 ± 25
CCCCCCCC [octane] + N#C[N-]C#N.OCCC[n+]1ccccc1 | 772 ± 53 | 710 ± 49 | 654 ± 45 | 605 ± 42 | 564 ± 39 | – | 930 ± 64 | 846 ± 58
CCCCCO [pentan-1-ol] + N#C[N-]C#N.OCCC[n+]1ccccc1 | 4.98 ± 0.34 | 4.89 ± 0.33 | 4.81 ± 0.33 | 4.74 ± 0.32 | 4.68 ± 0.32 | 4.61 ± 0.31 | – | –
CCCC(C)=O [pentan-2-one] + N#C[N-]C#N.OCCC[n+]1ccccc1 | 5.58 ± 0.38 | 5.77 ± 0.39 | 5.96 ± 0.41 | 6.14 ± 0.42 | 6.33 ± 0.43 | 6.5 ± 0.44 | – | –
CCC(=O)CC [pentan-3-one] + N#C[N-]C#N.OCCC[n+]1ccccc1 | 5.68 ± 0.39 | 5.92 ± 0.4 | 6.15 ± 0.42 | 6.36 ± 0.43 | 6.57 ± 0.45 | 6.79 ± 0.46 | – | –
CCCO [propan-1-ol] + N#C[N-]C#N.OCCC[n+]1ccccc1 | 2.03 ± 0.14 | 2.03 ± 0.14 | 2.02 ± 0.14 | 2.02 ± 0.14 | 2.01 ± 0.14 | 2.01 ± 0.14 | – | –
CC(C)O [propan-2-ol] + N#C[N-]C#N.OCCC[n+]1ccccc1 | 2.24 ± 0.15 | 2.2 ± 0.2 | 2.18 ± 0.15 | 2.15 ± 0.15 | 2.13 ± 0.14 | 2.11 ± 0.14 | – | –
CCCc1ccccc1 [propylbenzene] + N#C[N-]C#N.OCCC[n+]1ccccc1 | 30.5 ± 2.1 | 30.8 ± 2.1 | 31.1 ± 2.1 | 31.3 ± 2.1 | 31.6 ± 2.2 | 31.8 ± 2.2 | – | –
c1ccncc1 [pyridine] + N#C[N-]C#N.OCCC[n+]1ccccc1 | 1.39 ± 0.09 | 1.48 ± 0.1 | 1.56 ± 0.1 | 1.64 ± 0.11 | 1.72 ± 0.12 | 1.8 ± 0.12 | – | –
C=Cc1ccccc1 [styrene] + N#C[N-]C#N.OCCC[n+]1ccccc1 | 6.93 ± 0.47 | 7.23 ± 0.49 | 7.51 ± 0.51 | 7.79 ± 0.53 | 8.06 ± 0.55 | 8.32 ± 0.57 | – | –
